Measurements as given in US20060263895A1, “Method for monitoring the stereoselectivity and relative rate of organic chemical reactions” (priority 2005, published 2006).

Legend:
[1] = [total 1,2-propanediol] in aqueous ISES layer by 1H NMR; conditions: for [diol] (mM) @ 15 min: aqueous ISES layer, 1H NMR, t = 15 min; for Norm.: normalized to the catalyst derived from salen 3b (rate 1.0)
Protocol: The concentration of 1,2-propanediol in the aqueous layer was estimated under typical ISES conditions using 1H NMR spectroscopy. The bilayer was prepared as usual for double cuvette-ISES (Section V), but for the substitution of D2O for H2O in the buffer, and the elimination of the dehydrogenase enzymes. After 15 min, the aqueous layer (300 μL of 500 μL total) was withdrawn and mixed with a fresh solution of imidazole of known concentration (also 300 μL in D2O), as an internal concentration standard. Accumulation of the 1H NMR spectrum, followed by integration and quantitation, provided an experimental measure of [total diol] in the aqueous reporting layer at t=15 minutes for the catalyst under investigation. The observed diol concentrations for ten catalysts examined in this way are collected in Table S6, below. These have been normalized to the value for the catalyst derived from salen 3b (arbitrarily assigned a rate of 1.0).

[2] = HKR of (±)-propylene oxide under standard neat 'Jacobsen conditions' (NMR conversion, chiral HPLC ee); conditions: for NMR conv. (time) / % ee (HPLC): loading 0.25 mol %; for % ee (HPLC) / % ee of the 1,2-propanediol product, as observed by chiral HPLC (lower number): + = (S), − = (R); for % ee of the 1,2-propanediol product, as observed by chiral HPLC (lower number): neat propylene oxide, 0.55 equiv. H2O, 0.25 mol % catalyst, 3 h reaction time
Protocol: Salens in the fully synthetic, 42 member focused library that led to catalysts with appreciable activity, as indicated by double cuvette-ISES, were also evaluated ‘outside of the cuvette,’ under conditions more typically employed in HKR reactions. Specifically, these Co(III)-salen catalysts were evaluated in the HKR of (±)-propylene oxide, under neat conditions, similar to those described by Jacobsen and coworkers. Reactions were arbitrarily stopped after 3 hours, to obtain the enantiopurity of the 1,2-propanediol product at relatively early reaction times, for comparison with ISES predictions.
A typical procedure follows: To the Co(III)-salen catalyst derived from 7e (5.4 mg, 5.4 μmol, 0.25 mol %) and (±)-propylene oxide (125 mg, 2.15 mmol) at 0° C., was added water (21 μL, 1.18 mmol, 0.55 equiv.). The reaction mixture was securely capped, and allowed to warm to room temperature and stirred, most commonly for a total of 3 hours. Percent conversion at 3 hours was evaluated by 1H NMR of an aliquot (cooled to 0° C. for the transfer), in CDCl3. In most of these cases, the conversion was low enough after 3 hours, that the unreacted epoxide (bp 32° C.) was of relatively low ee, and was therefore removed by evaporation under aspirator vacuum. When the conversion was less than 5% by NMR after 3 hours, reactions were continued for longer times.
Upon termination of the reaction, the diol product was isolated by Kugelrohr distillation (˜120° C.-oven temp; 0.1 torr). To determine ee, the isolated diol was derivatized using p-bromobenzoyl imidazole (2.2 equiv.) in THF in the presence of NaH (4 equiv.) at room temperature for 5 min. The bis(p-bromobenzoate) esters obtained following sequential washes with 1 N HCl and saturated sodium bicarbonate, were of sufficient purity to be used directly for chiral HPLC analysis (Chiralcel OD, 99% […]). [drawing 23] [drawing 24] [drawing 25] [drawing 26] [drawing 27]

[3] = Double cuvette-ISES (in situ enzymatic screening) of Co(III)-salen mediated HKR of (±)-propylene oxide; conditions: for % ee of the 1,2-propanediol product, as predicted by double-cuvette ISES (upper number): bilayer of pH 8.6 buffer over 7.2 M epoxide in CHCl3, 0.25 mol % catalyst, 15-35 min, + = (S), − = (R)
Protocol: Aqueous reporting layers. containing TBADH/NADP+ (cuvette 1) and HLADH/NAD+ (cuvette 2), respectively, are then added. The increase in absorbance at 340 nm can be followed for several such sets in parallel by UV-vis spectrophotometry. The kinetic data are then used to make the double-cuvette ISES predictions.
A general procedure for double cuvette-ISES to estimate both enantioselectivities and relative rates for an array of catalysts being screened in parallel is presented below. The hydrolytic kinetic resolution (HKR) of (±) propylene oxide was chosen as model reaction.
Typically, quartz cuvettes with one cm light paths and with nominal one mL volumes were used. For each catalyst, a two cuvette screen was performed, with cuvette A containing HLADH, as (S)-propanediol-selective reporting enzyme, and cuvette B containing TBADH, as a (R)-propanediol-selective reporting enzyme. For each cuvette, the final volume was 800 μL (300 μL of organic layer; 500 μL of aqueous layer).
Both cuvettes A and B had the following composition: 150 μL (2.15 mmol) of (±)-propylene oxide (7.2 M in organic layer), 150 μL of CHCl3 and 0.25 mol % Co(III)-salen catalyst. The total organic layer volume was maintained as 300 μL in all catalyst screens.
(i) Cuvette A: 0.35 U HLADH (17.6 μL from a stock solution (0.02U/μL)), 7.2 mM β-NAD+(16.5 μL from a 220 mM stock) and 465.8 μL of 50 mM sodium pyrophosphate buffer, pH 8.8. The final pH was 8.6.
(ii) Cuvette B: 0.35 U TBADH (15.8 μL from a stock solution (0.022U/μL)) of, 2.2 mM β-NADP+ (5 μL from a 220 mM stock) and 479.5 μL of 50 mM sodium pyrophosphate buffer, pH 8.8. The final pH was 8.6. The total volume of the aqueous layer was maintained as 500 μL in both cuvettes in all ISES experiments.
C. Step by Step Protocol: A catalyst stock solution (22 μmol of catalyst in 620 μL CHCl3) was made up in a 1.5 ml microcentrifuge tube, and stored on ice, along with a stock of (±)-propylene oxide, in a separate tube. The organic layers were prepared by briefly vortexing 150 μL (5.4 μmol, 0.25 mol %) of the catalyst stock in CHCl3 with 150 μL (2.15 mmol) of (±)-propylene oxide in iced microcentrifuge tubes. These were loaded into 1 mL quartz cuvettes using precooled (refrigerator), disposable 1 mL syringes. The aqueous layers were then layered on top of the organic layers, by syringe, down the walls of the cuvette.

[4] = reaction stopped at the time given (mostly 3 h)

Row | Compound | [diol] (mM) @ 15 min [1] [mM] | Norm. [1] | NMR conv. (time) ([2]; 3 h) | % ee (HPLC) [2, 4] | % ee of the 1,2-propanediol product, as observed by chiral HPLC (lower number) [2] | % ee of the 1,2-propanediol product, as predicted by double-cuvette ISES (upper number) [3] | further results
1 | CC(C)(C)c1cccc(C=NC[C@H](Cc2ccc3ccccc3c2)N=Cc2cccc(C(C)(C)C)c2O)c1O [Salen 5b, N,N′-Bis(3′-tert-butylsalicylidene)-(1S)-(β-naphthylmethyl)-1,2-ethylenediamine] | 75.5 | 0.79 | 45 (3 h) % | +68 (S) % ee | +68 % ee | +65 % ee | –
2 | Oc1c(C=NC[C@H](Cc2ccc3ccccc3c2)N=Cc2ccc3ccccc3c2O)ccc2ccccc12 [Salen 5d, N,N′-Bis(1′-hydroxy-2′-naphthylidene)-(1S)-(β-naphthylmethyl)-1,2-ethylenediamine] | 54 | 0.56 | 10 (3 h) % | +11 (S) % ee | +11 % ee | +9 % ee | –
3 | CC(C)(C)c1cccc(C=NC[C@H](Cc2ccccc2)N=Cc2cccc(C(C)(C)C)c2O)c1O [Salen 3b, N,N′-Bis(3′-tert-butylsalicylidene)-(1S)-benzyl-1,2-ethylenediamine] | 96 | 1.0 | – | +57 (S) % ee | +57 % ee | +70 % ee | –
4 | CC(C)(C)c1cccc(C=NC[C@@H](N=Cc2cccc(C(C)(C)C)c2O)c2ccccc2)c1O [Salen 2b, N,N′-Bis(3′-tert-butylsalicylidene)-(1S)-phenyl-1,2-ethylenediamine] | 22 | 0.23 | 26 (3 h) % | −75 (R) % ee | −75 % ee | −73 % ee | –
5 | CO[C@H]1[C@@H]2OC(C)(C)O[C@@H]2COC1(CN=Cc1cccc(C(C)(C)C)c1O)N=Cc1cccc(C(C)(C)C)c1O (stereo partly drawn) [Salen 7b, N,N′-Bis(3′-tert-butylsalicylidene)-3-O-methyl-4,5-O-isopropylidene-1,2-dideoxy-Dfructopyranosyl-1,2-diamine] | – | – | 9 (3 h) % | −40 (R) % ee | −40 % ee | −28 % ee | –
6 | CO[C@H]1[C@@H]2OC(C)(C)O[C@@H]2COC1(CN=Cc1cc(C(C)(C)C)cc(C(C)(C)C)c1O)N=Cc1cc(C(C)(C)C)cc(C(C)(C)C)c1O (stereo partly drawn) [Salen 6a, N,N′-Bis(3′,5′-di-tert-butylsalicylidene)-3-O-methyl-4,5-O-isopropylidene-1,2-dideoxy-Dfructopyranosyl-1,2-diamine] | – | – | – | – | – | – | NMR conv. (time) ([2]; 3 h, listed as 6a*): 12 (3 h) %; % ee (HPLC) ([2]; reaction stopped at the time printed in the row (mostly 3 h), listed as 6a*): +69 (S) % ee; % ee of the 1,2-propanediol product, as observed by chiral HPLC (lower number) ([2]; listed as 6a*): +69 % ee; % ee of the 1,2-propanediol product, as predicted by double-cuvette ISES (upper number) ([3]; listed as 6a*): +77 % ee
7 | Oc1c(I)cc(I)cc1C=NC[C@@H](N=Cc1cc(I)cc(I)c1O)c1ccccc1 [Salen 2e, N,N′-Bis(3′,5′-diiodosalicylidene)-(1S)-phenyl-1,2-ethylenediamine] | – | – | 26 (3 h) % | −41 (R) % ee | −41 % ee | +4 % ee | –
8 | Oc1cc(OCc2ccccc2)ccc1C=NC[C@H](Cc1cccc2ccccc12)N=Cc1ccc(OCc2ccccc2)cc1O [Salen 4f, N,N′-Bis(4′-benzyloxysalicylidene)-(1S)-(α-naphthylmethyl)-1,2-ethylenediamine] | – | – | – | +51 (S) % ee | +51 % ee | +57 % ee | NMR conv. (time) ([2]; 21 h): 24 (21 h) %
9 | N,N′-Bis(3′-tert-butylsalicylidene)-[1R-(1α,2α,5α)]-2-amino-7,7-dimethyl-2-bicyclo[3.3.1]heptaneethanamine [Salen 1b] | – | – | – | +75 (S) % ee | +75 % ee | +68 % ee | –
10 | Oc1c(C=NC[C@H](Cc2ccccc2)N=Cc2ccc3ccccc3c2O)ccc2ccccc12 [Salen 3d, N,N′-Bis(1′-hydroxy-2′-naphthylidene)-(1S)-benzyl-1,2-ethylenediamine] | – | – | 10 (3 h) % | −30 (R) % ee | −30 % ee | −54 % ee | –
11 | CO[C@H]1[C@@H]2OC(C)(C)O[C@@H]2COC1(CN=Cc1c(O)ccc2ccccc12)N=Cc1c(O)ccc2ccccc12 (stereo partly drawn) [Salen 7c, N,N′-Bis(2′-hydroxy-1′-naphthylidene)-3-O-methyl-4,5-O-isopropylidene-1,2-dideoxy-Dfructopyranosyl-1,2-diamine] | – | – | – | – | – | – | NMR conv. (time) ([2]; time not given): none obs; ISES signal ([3]; over 35 min): § (These catalysts gave ISES signals <20 mAbs min−1 over 35 min.)
12 | Oc1c(I)cc(I)cc1C=NC[C@H](Cc1cccc2ccccc12)N=Cc1cc(I)cc(I)c1O [Salen 4e, N,N′-Bis(3′,5′-diiodosalicylidene)-(1S)-(α-naphthylmethyl)-1,2-ethylenediamine] | – | – | – | +14 (S) % ee | +14 % ee | +43 % ee | NMR conv. (time) ([2]; 24 h): 6 (24 h) %; ISES rate in the HLADH cuvette ([3]; over 35 min): 18.1 mAbs min−1
13 | Oc1c(I)cc(I)cc1C=NC[C@H](Cc1ccc2ccccc2c1)N=Cc1cc(I)cc(I)c1O [Salen 5e, N,N′-Bis(3′,5′-diiodosalicylidene)-(1S)-(β-naphthylmethyl)-1,2-ethylenediamine] | – | – | 3 (3 h) % | −5 (R) % ee | −5 % ee | +35 % ee | –
